# Measurements: patent publication US6825230B2, “Spiro and dispiro 1,2,4-trixolane antimalarials” (Medicines for Malaria Venture MMV, priority 2002, dated 2004)
# Tests used:
# [1] = tested on: P. berghei ANKA strain; assay: Divided 3x3 mg/kg and 3x1 mg/kg po doses in infected mice; type: in vivo, Plasmodium berghei
# In short: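 Male NMRI mice were infected i.v. with 2×10^7 P. berghei-parasitized erythrocytes on day 0, then dosed orally in SSV vehicle on days 1, 2 and 3 post-infection.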
# [2] = tested on: ANKA strain of P. berghei; assay: Single dose STI in vivo screen in infected mice; set-up: species or system Plasmodium berghei; settings: 10 mg/kg
# [3] = tested on: P. berghei ANKA strain; assay: Divided 3x10 mg/kg vs single 1x30 mg/kg po dose in infected mice; type: in vivo, Plasmodium berghei
# [4] = tested on: ANKA strain of Plasmodium berghei; assay: Single dose ED50/ED90/ED99 determination in infected mice; type: in vivo
# In short: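 Moro SPF or NMRI mice (three per group) infected with P. berghei ANKA were dosed once on day 1 post-infection in SSV (0.5% CMC, 0.5% benzyl alcohol, 0.4% Tween 80, 0.9% NaCl). Parasitemia reduction was scored on day 3; ED values (mg/kg) came from nonlinear fitting.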
# [5] = Pharmacokinetics in dogs (IV and oral dosing); settings: in vivo, dog; for bioavailability: some values marked (V), not defined
# From the text: (§1) Artesunate is listed as a reference compound.
# [6] = tested on: P. berghei ANKA strain; assay: Prophylactic activity, single 100 mg/kg po at various times before infection; type: in vivo, Plasmodium berghei
# [7] = tested on: Schistosoma mansoni adult worms (49-day-old); assay: Effect on adult schistosomes (49-day-old) in infected mice; type: in vivo
# Protocol: Mice were infected with 100 Schistosoma mansoni cercariae on day 49 post-treatment. Each group was treated per os with OZ compounds at single doses of 200, 400, and 600 mg/kg. Untreated mice served as the control. All groups were killed 4 weeks after treatment and the liver and intestine were removed and separated. The liver and intestine were compressed and alive male and female worms could be seen and counted.
# [8] = tested on: chloroquine-sensitive NF54 strain of P. falciparum; assay: In vitro antimalarial semiautomated microdilution assay ([3H]-hypoxanthine incorporation), NF54 strain; type: cell-based, Plasmodium falciparum; settings: Plasmodium falciparum; chloroquine-sensitive NF54 strain, 72 h incubation; read-out: IC50 (ng/ml) NF54
# In short: (§2)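 IC50 values come from Logit regression of [3H]-hypoxanthine uptake data. Parasites were intraerythrocytic P. falciparum forms taken from asynchronous stock cultures and tested by semiautomated microdilution.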
# [9] = Pharmacokinetics in rats (IV and oral dosing); settings: rat, in vivo
# From the text: as §1
# [10] = tested on: chloroquine-resistant K1 strain of P. falciparum; assay: In vitro antimalarial semiautomated microdilution assay ([3H]-hypoxanthine incorporation), K1 strain; type: cell-based, Plasmodium falciparum; settings: Plasmodium falciparum; chloroquine-resistant K1 strain, 72 h incubation; read-out: IC50 (ng/ml) K1
# In short: as §2
smiles,measurement,setting,value
NC[C@H]1CC[C@]2(CC1)OOC1(O2)C2CC3CC(C2)CC1C3 (stereo partly drawn) [OZ209],Activity at the 3×3 mg/kg dose,"[1]; 3 mg/kg po (SSV) on days 1, 2, 3 post-infection, parasitemia reduction on day 4",100%
same,Survival,"[1]; 3 × 1 mg/kg p.o. SSV on days 1, 2, 3 post-infection",9.4 days
same,Survival,"[1]; 3 × 3 mg/kg p.o. SSV on days 1, 2, 3 post-infection",16.4 days
same,Activity (%),"[1]; 3 × 3 mg/kg p.o. SSV on days 1, 2, 3 post-infection, percent reduction of parasitemia vs control on day 4",100%
same,Activity (%),"[1]; po, 1 mg/kg, 96 h",99.51%
same,Cures,"[1]; po, 3 mg/kg, 720 h",0\5
same,Survival (days) 10 mg/kg po,"[2]; single 10 mg/kg po in 3% ethanol and 7% Tween 80, untreated 6-7 days",9.5 days
same,Activity (%) 10 mg/kg po,"[2]; single 10 mg/kg po in 3% ethanol and 7% Tween 80 on day 1 post-infection, percent reduction in parasitemia on day 3",99.94%
same,Survival (days) 10 mg/kg SSV po,"[2]; single 10 mg/kg po in SSV, untreated 6-7 days",10.0 days
same,Activity (%) 10 mg/kg SSV po,"[2]; single 10 mg/kg po in standard suspending vehicle (SSV) on day 1 post-infection, percent reduction in parasitemia on day 3",99.96%
same,Survival (days) 10 mg/kg sc,"[2]; single 10 mg/kg sc in 3% ethanol and 7% Tween 80, untreated 6-7 days",12.5 days
same,Activity (%) 10 mg/kg sc,"[2]; single 10 mg/kg sc in 3% ethanol and 7% Tween 80 on day 1 post-infection, percent reduction in parasitemia on day 3",99.97%
same,Survival (days) 3 × 10 mg/kg p.o. SSV,"[3]; 10 mg/kg po on days 1, 2, 3 post-infection",>30 days
same,Activity (%) 3 × 10 mg/kg p.o. SSV,"[3]; po, 10 mg/kg, 96 h",100%
same,Cures 3 × 10 mg/kg p.o. SSV,"[3]; po, 10 mg/kg, 720 h",3\3
same,Activity (%) 1 × 30 mg/kg p.o. SSV,"[3]; po, 30 mg/kg",100%
same,Cures 1 × 30 mg/kg p.o. SSV,"[3]; po, 30 mg/kg, 720 h",0/5
same,Survival (days) 1 × 30 mg/kg p.o. SSV,[3]; single 30 mg/kg po on day 1 post-infection,>30 days
same,ED50,"[4]; Plasmodium berghei, single dose po in SSV on day 1 post-infection, parasitemia day 3, nonlinear fitting, read-out: ED50",0.55 mg/kg
same,ED90,[4]; po,1.4 mg/kg
same,ED99,"[4]; single dose po in SSV on day 1 post-infection, parasitemia day 3, nonlinear fitting",3.0 mg/kg
same,half-life,[5]; IV 10 mg/kg,183 min
same,half-life,[5]; oral 10 mg/kg,127 min
same,bioavailability,"[5]; oral 10 mg/kg, read-out: Dog Oral Bioavailability 10 mg/kg",24.5%
same,bioavailability,"[5]; oral 25 mg/kg, read-out: Dog Oral Bioavailability 25 mg/kg",15.9%
same,Prophylactic Activity (%) 72 h,"[6]; po, 100 mg/kg",99.92%
same,Duration of prophylactic protection,[6]; single 100 mg/kg po,3 days
same,Prophylactic Activity (%) 24 h,"[6]; single 100 mg/kg po 24 h before infection, parasitemia reduction on day 3 post-infection",100%
same,Prophylactic Activity (%) 48 h,"[6]; single 100 mg/kg po 48 h before infection, parasitemia reduction on day 3 post-infection",99.9%
same,Prophylactic Activity (%) 0 h,"[6]; single 100 mg/kg po at 0 h, parasitemia reduction on day 3 post-infection",100%
same,"% reduction of adult worms growth at day 49 after per os application of 200 mg/kg, TWR (%)","[7]; single 200 mg/kg per os, 49-day-old adults, total worm reduction rate",39%
same,"Adult worms day 49, per os 200 mg/kg, DEAD WORM (%)","[7]; single 200 mg/kg per os, percentage of dead worm in the liver",34%
same,"% reduction of adult worms growth at day 49 after per os application of 400 mg/kg, TWR (%)","[7]; single 400 mg/kg per os, 49-day-old adults, total worm reduction rate",16%
same,"Adult worms day 49, per os 400 mg/kg, DEAD WORM (%)","[7]; single 400 mg/kg per os, percentage of dead worm in the liver",28%
same,"% reduction of adult worms growth at day 49 after per os application of 600 mg/kg, TWR (%)","[7]; single 600 mg/kg per os, 49-day-old adults, total worm reduction rate",41/ %
same,"Adult worms day 49, per os 600 mg/kg, DEAD WORM (%)","[7]; single 600 mg/kg per os, percentage of dead worm in the liver",21++ %
same,IC50,[8],0.32 ng/mL
same,half-life,"[9]; iv, 10 mg/kg",150 min
same,bioavailability,"[9]; po, 10 mg/kg",12.4%
same,bioavailability,"[9]; po, 25 mg/kg",22.4%
same,half-life,"[9]; po, 25 mg/kg",102 min
same,IC50,[10],0.21 ng/mL
